Like-named read-outs stand apart in the source and are kept apart here.
What was measured:
MAP2K1 (MEK1) = biological target: T1, MAP2K1 (MEK1) (Homo sapiens, UniProt Q02750); test: MEK Inhibition Assay-2 (Example 3): Z'-LYTE biochemical assay; details: Table 6; procedure of Example 3; read-out: IC50 against MEK1
T1 construct: purchased ThermoFisher
Procedure: MEK1 inhibitory activity of compounds were tested using the following procedure (protocol available at thermofisher.com/content/dam/LifeTech/migration/files/drug-discovery/pdfs.par.60256.file.dat/20130430%20ssbk%20customer%20protocol%20and%20assay%20conditions.pdf). The Z′-LYTE biochemical assay (ThermoFisher) employs a fluorescence-based, coupled-enzyme format and is based on the differential sensitivity of phosphorylated and non-phosphorylated peptides to proteolytic cleavage.
Test compounds in 100% DMSO were screened in 1% DMSO (final) in the well. For 10 point titrations, 3-fold serial dilutions are conducted from the starting concentration of 30 μM.
After the 1 hour incubation, 5 μL of a 1:1024 dilution of Development Reagent A (available from Invitrogen, catalog no. PV3295) was added.
ATP solutions were diluted to a 4× working concentration in Kinase Buffer (50 mM HEPES pH 7.5, 0.01% BRIJ-35, 10 mM MgCl2, 1 mM EGTA). ATP Km apparent was previously determined using a Z′-LYTE assay. The Development Reagent was diluted in Development Buffer (available from Invitrogen, catalog no. P3127).
Assay Protocol: 2.5 μL of 4× test compound or 100 nL of 100× Test Compound plus 2.4 μL Kinase Buffer, 5 μL of the 2× Peptide/Kinase Mixture, 2.5 μL of 4×ATP Solution were added to the plates and placed on a shake plate for 30-seconds. The kinase reaction was allowed to proceed for 60-minute at room temperature, before 5 μL of Development Reagent Solution was added, and the mixture agitated for 30-seconds on a shake plate. The mixture was incubated for 60-minute at room temperature. Fluorescence was measured using a plate reader and the data were analyzed.
This control yielded 100% cleaved peptide in the Development Reaction. The 100% Phosphorylation Control, which consisted of a synthetically phosphorylated peptide of the same sequence as the peptide substrate, was designed to allow for the calculation of percent phosphorylation. This control yielded a very low percentage of cleaved peptide in the Development Reaction. The 0% Phosphorylation and 100% Phosphorylation Controls allow for the calculation of the percent phosphorylation achieved in a specific reaction well.
The minimum emission ratio in a screen was established by the 0% Inhibition Control, which contained active kinase. This control was designed to produce a 10-50% phosphorylated peptide in the Kinase Reaction. Cascade assays may produce up to 70% phosphorylated peptide.
A known inhibitor control standard curve, 10 point titration, was run for each individual kinase on the same plate as the kinase to ensure the kinase was inhibited within an expected IC50 range previously determined.
The following controls are prepared for each concentration of Test Compound assayed. […] The expected value for a non-interfering compound should be 100%. Any value outside of 90% to 110% was flagged. […] The expected value for a non-fluorescence compound should be 0%. Any value >20% was flagged.
The data in Table A was calculated. XLfit from IDBS was used. The dose response curve was curve fit to model number 205 (sigmoidal dose-response model).

MEK1 = biological target: T2, MEK1 (Homo sapiens, UniProt Q02750); test: MEK Inhibition Assay-1 (Example 2): 33P-ATP, P81 filter-binding kinase assay; details: Example 2, read-out: Assay 1: biochemical MEK IC50
T2 construct: N-terminal His-tagged recombinant human full length protein; purchased Invitrogen PV3303; host or cells: insect cells
Procedure: The following procedure can be used to measure biochemical activity. MEK1 inhibitory activity of compounds were tested using the following procedure. […] Nat Biotechnoi 2011, 29(11), 1039-45.
• Reaction buffer: 20 mM Hepes (pH 7.5), 10 mM MgCl2, 1 mM EGTA, 0.02% Brij35, 0.02 mg/mL BSA, 0.1 mM Na3VO4, 2 mM DTT, 1% DMSO • Enzyme: MEK1, Invitrogen cat #PV3303 • N-terminal His-tagged recombinant human full length protein, expressed in insect cells. Activated in vitro by RAF1. MW=49.2 kDa, GenBank Accession No. NP_002746. • Substrate: 5 μM ERK2 (K52R), • Kinase-dead mutant, (GenBank Accession No. NM_0011949), aa2-358 with N-terminal His6 tag, MW=43.63 kDa, expressed in E. coli.
The substrate was prepared in freshly prepared Reaction Buffer. The kinase was delivered into the substrate solution and gently mixed. Test compounds were delivered in 100% DMSO into the kinase reaction mixture by Acoustic technology (Echo550; nanoliter range), and incubated for 20 min at room temperature. ^33P-ATP was delivered into the reaction mixture to initiate the reaction. The reaction mixture was incubated for 2 hours at room temperature. Kinase activity was detected by P81 filter-binding method.

[1] = Table 10, compounds of formula (IV)
[2] = Table 7, compounds of formula (I)

T1 sequence (Q02750 whole entry): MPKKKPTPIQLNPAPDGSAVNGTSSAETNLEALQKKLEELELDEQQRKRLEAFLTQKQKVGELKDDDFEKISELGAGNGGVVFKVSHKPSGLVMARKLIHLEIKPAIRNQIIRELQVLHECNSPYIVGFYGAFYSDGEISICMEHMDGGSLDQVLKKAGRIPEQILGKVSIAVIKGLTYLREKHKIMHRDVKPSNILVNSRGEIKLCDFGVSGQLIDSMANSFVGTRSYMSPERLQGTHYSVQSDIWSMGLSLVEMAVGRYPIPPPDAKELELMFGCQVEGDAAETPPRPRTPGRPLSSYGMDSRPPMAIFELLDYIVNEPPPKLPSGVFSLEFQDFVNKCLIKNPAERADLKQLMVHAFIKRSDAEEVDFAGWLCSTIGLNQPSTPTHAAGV
T2 sequence (Q02750 whole entry): as above

| Compound | IC50 (MAP2K1 (MEK1)) [µM] | IC50 (MEK1; [1]) [µM] | IC50 (MEK1; [2]) [µM] |
| --- | --- | --- | --- |
| O=c1c2c(Nc3ccc(I)cc3F)cncc2ccn1C[C@H](O)CO [Compound 5.002] | ≤ 0.15 | – | – |
| NCCCn1ccc2cncc(Nc3ccc(I)cc3F)c2c1=O [Compound 5.003] | 0.15 to 1.5 | – | – |
| CC(=O)c1sc(Nc2ccc(I)cc2F)c(C(=O)NC[C@@H](O)CO)c1C [Compound 4.015] | 0.15 to 1.5 | – | – |
| O=C1CCCc2c1sc(Nc1ccc(I)cc1F)c2C(=O)NOCC1CC1 [Compound 4.032] | ≤ 0.15 | ≤ 0.5 | – |
| CC(=O)c1sc(Nc2ccc(I)cc2F)c(C(=O)N2CC[C@@H](N)C2)c1C [Compound 4.018] | – | 5 to 10 | – |
| COC(=O)Cn1ccc2cncc(Nc3ccc(I)cc3F)c2c1=O [Compound 5.005] | > 1.5 | – | – |
| CC(=O)c1sc(Nc2ccc(I)cc2F)c(C(=O)NOCC2CC2)c1C [Compound 4.023] | – | ≤ 0.5 | – |
| CCCONC(=O)c1ccc(C#N)cc1Nc1ccc(I)cc1F [Compound 1.009] | 0.15 to 1.5 | – | 0.15 to 1.5 |
| CCONC(=O)c1c(Nc2ccc(I)cc2F)sc(C(C)=O)c1C [Compound 4.022] | – | ≤ 0.5 | – |
| N#Cc1ccc(C(=O)NOCCO)c(Nc2ccc(I)cc2F)c1 [Compound 1.010] | ≤ 0.15 | – | ≤ 0.15 |
| N#Cc1ccc(C(=O)N2CC(O)C2)c(Nc2ccc(I)cc2F)c1 [Compound 1.002] | > 1.5 | – | – |
| O=C1CCCc2c1sc(Nc1ccc(I)cc1F)c2C(=O)NC[C@H](O)CO [Compound 4.034] | ≤ 0.15 | – | – |
| CC(=O)c1sc(Nc2ccc(I)cc2F)c(C(=O)NCC(C)(C)N)c1C [Compound 4.020] | – | 1 to 5 | – |
| CCON1CCc2cncc(Nc3ccc(I)cc3F)c2C1=O [Compound 5.011, 2-ethoxy-8-((2-fluoro-4-iodophenyl)amino)-3,4-dihydro-2,6-naphthyridin-1(2H)-one] | 0.15 to 1.5 | – | – |
| O=c1c2c(Nc3ccc(I)cc3F)cncc2ccn1O [Compound 5.006] | 0.15 to 1.5 | – | – |
| N#Cc1ccc(C(=O)O)c(Nc2ccc(I)cc2F)c1 [Compound 1.001] | 0.15 to 1.5 | – | – |
| CC(=O)c1sc(Nc2ccc(I)cc2F)c(C(=O)NOCCO)c1C [Compound 4.013] | 0.15 to 1.5 | ≤ 0.5 | – |
| O=C1CCCc2c1sc(Nc1ccc(I)cc1F)c2C(=O)NC[C@@H](O)CO [Compound 4.035] | ≤ 0.15 | – | – |
| O=C1CCCc2c1sc(Nc1ccc(I)cc1F)c2C(=O)NOC[C@H](O)CO [Compound 4.030] | ≤ 0.15 | – | – |
| COC(=O)CCONC(=O)c1ccc(C#N)cc1Nc1ccc(I)cc1F [Compound 1.022] | > 1.5 | – | – |

| Compound | IC50 (MAP2K1 (MEK1)) [µM] | IC50 (MEK1; [1]) [µM] | IC50 (MEK1; [2]) [µM] |
| --- | --- | --- | --- |
| N#Cc1ccc(C(=O)NO)c(Nc2ccc(I)cc2F)c1 [Compound 1.017] | ≤ 0.15 | – | – |
| O=C(O)Cn1ccc2cncc(Nc3ccc(I)cc3F)c2c1=O [Compound 5.004] | > 1.5 | – | – |
| CONC(=O)c1ccc(C#N)cc1Nc1ccc(I)cc1F [Compound 1.007] | 0.15 to 1.5 | – | 0.15 to 1.5 |
| Cc1cc(I)ccc1Nc1cc(C#N)ccc1C(=O)NOCCO [Compound 1.011] | 0.15 to 1.5 | – | – |
| N#Cc1ccc(C(=O)NOCCO)c(Nc2ccc(I)cc2F)c1F [Compound 1.030] | ≤ 0.15 | – | ≤ 0.15 |
| N#Cc1ccc(C(=O)NOCC2CC2)c(Nc2ccc(I)cc2F)c1 [Compound 1.012] | 0.15 to 1.5 | – | – |
| CONC(=O)c1c(Nc2ccc(I)cc2F)sc(C(C)=O)c1C [Compound 4.021] | – | 0.5 to 1 | – |
| O=C1NCCc2cncc(Nc3ccc(I)cc3F)c21 [Compound 5.012] | 0.15 to 1.5 | – | – |
| N#Cc1ccc(C(=O)NOCCN)c(Nc2ccc(I)cc2F)c1 [Compound 1.018] | 0.15 to 1.5 | – | – |
| CCONC(=O)c1ccc(C#N)cc1Nc1ccc(I)cc1F [Compound 1.008] | 0.15 to 1.5 | – | ≤ 0.15 |
| O=C1c2c(cncc2Nc2ccc(I)cc2F)CCN1OCCO [Compound 5.010] | 0.15 to 1.5 | – | – |
| CC(=O)c1sc(Nc2ccc(I)cc2F)c(C(=O)N[C@@H]2CCNC2)c1C [Compound 4.017] | – | 0.5 to 1 | – |
| O=c1c2c(Nc3ccc(I)cc3F)cncc2ccn1OCCO [Compound 5.007] | 0.15 to 1.5 | – | – |
| O=c1c2c(Nc3ccc(I)cc3F)cncc2ccn1C[C@@H](O)CO [Compound 5.001] | ≤ 0.15 | – | – |
| NCCONC(=O)c1c(Nc2ccc(I)cc2F)sc2c1CCCC2=O [Compound 4.033] | ≤ 0.15 | – | – |
| N#Cc1ccc(C(=O)NOCC2CC2)c(Nc2ccc(I)cc2F)c1F [Compound 1.031] | ≤ 0.15 | – | ≤ 0.15 |
| CC(=O)c1sc(Nc2ccc(I)cc2F)c(C(=O)NC[C@H](O)CO)c1C [Compound 4.014] | 0.15 to 1.5 | – | – |
| Cc1cc(I)ccc1Nc1cc(C#N)ccc1C(=O)NOCC1CC1 [Compound 1.013] | 0.15 to 1.5 | – | – |
| CC(=O)c1sc(Nc2ccc(I)cc2F)c(C(=O)N[C@@H]2CCCNC2)c1C [Compound 4.016] | – | 0.5 to 1 | – |
